Values quoted from earlier work in patent US10301318B2, “Neuroactive compounds and methods of using the same” (THE GENERAL HOSPITAL CORPORATION, priority 2014, dated 2019).

Test system: mice
Settings: literature

In the case of O=C(CCCN1CCC(O)(c2ccc(Cl)cc2)CC1)c1ccc(F)cc1 [haloperidol], the “reversal of PCP-induced hyperlocomotion” value is listed as “can be reversed”.
